Experimental data: patent US12673961B2 (Agios Pharmaceuticals, Inc., priority 2022, dated 2026)
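Note: Ten-point dose curve from 2-fold serial dilutions, run in duplicate at 0.5% DMSO final, tracer step used 20 µM sepiapterin and 800 µM labeled phenylalanine.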

Each compound was assayed against T1, human PAH with the R408W mutation (Homo sapiens, UniProt P00439, R408W) (assay: Cell Based Phenylalanine Flux Assay). Settings: A375 cells expressing human R408W PAH; 24 hrs with compound, then sepiapterin and 13C9,15N-Phenylalanine for 4 hours; 13C-Tyrosine by LC-MS; average where tested multiple times; read-out: AC50.
T1 construct: expressed in transfected cells
T1 sequence (P00439 1-452 R408W): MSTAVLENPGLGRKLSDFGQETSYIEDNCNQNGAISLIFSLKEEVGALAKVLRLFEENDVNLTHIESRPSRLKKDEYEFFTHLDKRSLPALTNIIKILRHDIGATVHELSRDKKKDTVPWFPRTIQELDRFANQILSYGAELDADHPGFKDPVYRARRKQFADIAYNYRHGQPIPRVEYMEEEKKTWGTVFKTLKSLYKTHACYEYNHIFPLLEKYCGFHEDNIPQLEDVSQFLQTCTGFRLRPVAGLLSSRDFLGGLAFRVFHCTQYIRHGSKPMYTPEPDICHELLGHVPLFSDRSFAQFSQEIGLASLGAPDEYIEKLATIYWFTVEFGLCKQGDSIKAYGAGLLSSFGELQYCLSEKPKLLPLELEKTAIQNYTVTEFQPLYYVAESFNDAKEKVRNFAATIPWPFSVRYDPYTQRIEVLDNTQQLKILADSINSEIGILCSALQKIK
With `O=C(c1nnc(C2CCC2)o1)N1CCc2[nH]cnc2[C@@H]1c1cc2c(F)cccn2n1` [Example 1558, (R)-(5-cyclobutyl-1,3,4-oxadiazol-2-yl)(4-(4-fluoropyrazolo[1,5-a]pyridin-2-yl)-6,7-dihydro-1H-imidazo[4,5-c]pyridin-5(4H)-yl)methanone] the AC50 was 1000 to 5000 nM.
In the case of `Cc1cc(-c2nnc(C(=O)N3CCc4[nH]cnc4[C@H]3c3cc4cccc(F)n4n3)o2)nn1C` [Example 1565, (S)-(5-(1,5-dimethyl-1H-pyrazol-3-yl)-1,3,4-oxadiazol-2-yl)(4-(7-fluoropyrazolo[1,5-a]pyridin-2-yl)-6,7-dihydro-1H-imidazo[4,5-c]pyridin-5(4H)-yl)methanone], the AC50 is reported as less than 500 nM.
For `Cc1cnn(C)c1-c1nnc(C(=O)N2CCc3[nH]cnc3[C@H]2c2cc3c(C(F)F)cccn3n2)o1` [Example 1568, (S)-(4-(4-(difluoromethyl)pyrazolo[1,5-a]pyridin-2-yl)-6,7-dihydro-1H-imidazo [4,5-c]pyridin-5(4H)-yl)(5-(1,4-dimethyl-1H-pyrazol-5-yl)-1,3,4-oxadiazol-2-yl)methanone], the AC50 was less than 500 nM.
For `c1ccc2oc(N3CCc4[nH]cnc4[C@H]3c3cc4ccccn4n3)nc2c1` [Example 1577, (S)-2-(4-(pyrazolo[1,5-a]pyridin-2-yl)-6,7-dihydro-1H-imidazo[4,5-c]pyridin-5(4H)-yl)benzo[d]oxazole], the AC50 was 500 to 1000 nM.
In the case of `O=C(c1nnc(C2CC(F)(F)C2)o1)N1CCc2[nH]cnc2[C@@H]1c1cc2c(Cl)cccn2n1` [Example 1586, (R)-(4-(4-chloropyrazolo [1,5-a]pyridin-2-yl)-6,7-dihydro-1H-imidazo [4,5-c]pyridin-5(4H)-yl)(5-(3,3-difluorocyclobutyl)-1,3,4-oxadiazol-2-yl)methanone], the AC50 is reported as 1000 to 5000 nM.
In the case of `O=C(c1nnc(C2CC(F)(F)C2)o1)N1CCc2[nH]cnc2[C@H]1c1cc2c(Cl)cccn2n1` [Example 1587, (S)-(4-(4-chloropyrazolo [1,5-a]pyridin-2-yl)-6,7-dihydro-1H-imidazo[4,5-c]pyridin-5(4H)-yl)(5-(3,3-difluorocyclobutyl)-1,3,4-oxadiazol-2-yl)methanone], the AC50 is reported as less than 500 nM.
In the case of `FC(F)(F)c1cccn2nc([C@@H]3c4nc[nH]c4CCN3c3nnc(C4CC4)o3)cc12` [Example 1591, (S)-2-cyclopropyl-5-(4-(4-(trifluoromethyl)pyrazolo[1,5-a]pyridin-2-yl)-6,7-dihydro-1H-imidazo[4,5-c]pyridin-5(4H)-yl)-1,3,4-oxadiazole], the AC50 is reported as 500 to 1000 nM.
With `c1cnc(N2CCc3[nH]cnc3[C@H]2c2cc3ccccn3n2)nc1` [Example 1592, (S)-4-(pyrazolo[1,5-a]pyridin-2-yl)-5-(pyrimidin-2-yl)-4,5,6,7-tetrahydro-1H-imidazo[4,5-c]pyridine] the AC50 was 500 to 1000 nM.
Work on `Clc1cccn2nc([C@H]3c4nc[nH]c4CCN3c3nnc(-c4ccccn4)o3)cc12` [Example 1622, (R)-2-(4-(4-chloropyrazolo [1,5-a]pyridin-2-yl)-6,7-dihydro-1H-imidazo[4,5-c]pyridin-5(4H)-yl)-5-(pyridin-2-yl)-1,3,4-oxadiazole] yielded an AC50 of 1000 to 5000 nM.
`FC(F)c1cccc2cc([C@H]3c4nc[nH]c4CCN3c3nnc(-c4ccccn4)o3)nn12` [Example 1627, (R)-2-(4-(7-(difluoromethyl)pyrazolo[1,5-a]pyridin-2-yl)-6,7-dihydro-1H-imidazo [4,5-c]pyridin-5(4H)-yl)-5-(pyridin-2-yl)-1,3,4-oxadiazole] showed an AC50 greater than 5000 nM.
`COCc1ccc2c(C(=O)N3CCc4[nH]cnc4[C@H]3c3cc4c(F)cccn4n3)cnn2c1` [Example 1628, (4-(4-fluoropyrazolo[1,5-a]pyridin-2-yl)-6,7-dihydro-1H-imidazo[4,5-c]pyridin-5(4H)-yl)(6-(methoxymethyl)pyrazolo[1,5-a]pyridin-3-yl)methanone] was tested, and the AC50 was 500 to 1000 nM.
`Clc1cccc2cc([C@@H]3c4nc[nH]c4CCN3c3nnc(-c4ccccn4)o3)nn12` [Example 1639, (S)-2-(4-(7-chloropyrazolo [1,5-a]pyridin-2-yl)-6,7-dihydro-1H-imidazo[4,5-c]pyridin-5(4H)-yl)-5-(pyridin-2-yl)-1,3,4-oxadiazole] gave an AC50 of 500 to 1000 nM.
